The text below walks through data of paper PMC6327852 (Journal of cellular physiology, 2016).

Some results are limits rather than exact numbers.

One data set relates to Ebola virus. In kind it is cell-based.
Data set [1] relates to mTOR Serine 2448 phosphorylation. In kind it is cell-based. The following applies: GBM5 cells, single agent 2.0 μM, 6 h.
Another data set concerns HSP90, GRP78, and HSP70. Description: Immuno-fluorescence detection of chaperones in fixed cells. The following applies: HuH7 and HT1080, 0–3.0 μM ± sildenafil 2 μM, 2 h.
Data set [2] deals with influenza A and B viruses. Description: Influenza virus-mediated cell lysis, live/dead assay in MRC5 cells. In kind it is cell-based, human.
The target in a further data set is HSP70 ATPase (Homo sapiens, UniProt P0DMV8). Description: ATPase activity of immuno-precipitated HSP70-GFP. Particulars: 30 nM - 1 μM, 30 min at 37 °C.
The test system of data set [3] is glucosidase I, glucosidase IIα, glucosidase IIβ. Briefly: Immuno-fluorescence of glucosidases in GBM12 cells. It is filed as cell-based. Particulars: 2.0 μM, 6 h.
For the next data set, the system named is Junin virus (JUNV). In kind it is cell-based.
Another data set concerns NPC1 and TIM1. It is filed as cell-based.
The test system of the next data set is HSP90 ATPase. Description: ATPase activity of immuno-precipitated FLAG-tagged HSP90. The following applies: 30 nM - 1 μM, 30 min at 37 °C.
The target of another data set is HSP27 (Homo sapiens, UniProt P04792). Description: Immuno-fluorescence of HSP27 expression in GBM cells. Particulars: GBM5, GBM6, GBM12 cells, 0–3.0 μM, 3 h.
In data set [4] the test system is rabbit hemorrhagic disease virus (RHDV). Description: Rabbit hemorrhagic fever virus studies. It is filed as in vivo.

Chain of HSP70 ATPase (P0DMV8 whole entry): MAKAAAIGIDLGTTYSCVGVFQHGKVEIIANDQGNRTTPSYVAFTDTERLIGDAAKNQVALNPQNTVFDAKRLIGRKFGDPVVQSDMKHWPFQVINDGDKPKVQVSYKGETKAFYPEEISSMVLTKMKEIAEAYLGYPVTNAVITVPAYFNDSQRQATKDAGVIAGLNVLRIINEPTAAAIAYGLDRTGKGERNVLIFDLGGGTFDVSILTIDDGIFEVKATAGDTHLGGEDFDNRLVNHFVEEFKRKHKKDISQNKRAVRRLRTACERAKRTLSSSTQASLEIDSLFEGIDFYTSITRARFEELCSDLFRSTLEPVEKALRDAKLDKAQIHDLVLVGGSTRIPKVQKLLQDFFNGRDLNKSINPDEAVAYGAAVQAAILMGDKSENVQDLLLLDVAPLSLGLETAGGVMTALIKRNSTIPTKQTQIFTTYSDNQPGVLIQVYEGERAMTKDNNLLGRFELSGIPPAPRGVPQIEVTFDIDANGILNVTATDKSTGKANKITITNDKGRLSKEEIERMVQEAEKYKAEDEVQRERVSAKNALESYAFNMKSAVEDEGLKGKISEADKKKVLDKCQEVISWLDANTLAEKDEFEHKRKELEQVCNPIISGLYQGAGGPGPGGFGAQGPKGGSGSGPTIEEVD
Chain of HSP27 (P04792 whole entry): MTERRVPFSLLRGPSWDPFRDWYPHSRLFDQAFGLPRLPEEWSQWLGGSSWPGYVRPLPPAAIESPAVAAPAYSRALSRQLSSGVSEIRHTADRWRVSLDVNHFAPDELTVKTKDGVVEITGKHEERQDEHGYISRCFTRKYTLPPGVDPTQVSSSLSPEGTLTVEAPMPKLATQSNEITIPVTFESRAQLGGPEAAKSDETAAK

As for `NCC(=O)Nc1ccc(-n2nc(C(F)(F)F)cc2-c2ccc3c(ccc4ccccc43)c2)cc1` [AR-12], the “Ebola virus replication in vitro” value in the data set with Ebola virus is “suppressed the replication”. Also, the “mTOR Serine 2448 phosphorylation” value in data set [1] is “strongly reduced”. Further, in the data set on HSP90, GRP78, and HSP70, the “detection of HSP90, GRP78, and HSP70 in fixed in situ cells” value was “rapid dose- and time-dependent reduction”. The “influenza virus-mediated cell lysis / cell killing” value in data set [2] was “reduced cell lysis / cell killing”. Moreover, the “effect on HSP70 ATPase activity” value at HSP70 ATPase was “inhibitory effects”. Moreover, in data set [3], the “expression of glucosidase I and glucosidase IIα” value is listed as “rapidly reduced the expression”; the “expression of glucosidase IIβ” value is “did not impact”. Besides, in the data set on Junin virus (JUNV), the “JUNV infected cells expressing viral nucleoprotein NP” value is “drastically reduced” and the “replication of different strains of JUNV” value was “potently inhibited”. For the same compound, in the data set with NPC1 and TIM1, the “expression of Ebola virus receptors NPC1 and TIM1 in vitro” value is listed as “reduced the expression”. For the same compound, in the data set with HSP90 ATPase, the “effect on HSP90 ATPase activity” value is reported as “inhibitory effects”. Further, the “expression of HSP27” value at HSP27 is given as “reduced”. For the same compound, the “animals that had died” value in data set [4] ([…], vehicle approximately 70% at 60 h, P < 0.05, 25 mg/kg) is reported as “approximately 30%”. For the same compound, in data set [4] (rabbits, RHDV, 25 mg/kg x4), the “liver damage assessed by H&E staining of liver sections” value is recorded as “reduced obvious liver damage”; the “virus-induced increases in plasma ALT, LDH, and GGT levels” value is given as “significantly reduced”. Also, the “expression of virus protein VP60 mRNA in liver” value in [4] (rabbits, RHDV, at the time of animal nadir, quantitative RT-PCR) is “less expression”. Also, the “presence in mouse brain tissue 48 h after dosing” value (48 h after dosing) is listed as “still detectable”. Also, under “mouse, IV bolus 10 mg/kg”, the peak brain concentration turned out to be 2 µM and the “time to cross the blood brain barrier after dosing” value is recorded as not above 5 min.

For the compound `Cc1ccc(Nc2nccc(N(C)c3ccc4c(C)n(C)nc4c3)n2)cc1S(N)(=O)=O` [pazopanib], the “influenza virus-mediated cell lysis / cell killing” value in data set [2] was “reduced cell lysis / cell killing”. The “effect on HSP70 ATPase activity” value at HSP70 ATPase is “inhibitory effects”. In addition, in the data set on HSP90 ATPase, the “effect on HSP90 ATPase activity” value is reported as “inhibitory effects”.

On to `CNC(=O)c1cc(Oc2ccc(NC(=O)Nc3ccc(Cl)c(C(F)(F)F)c3)cc2)ccn1` [sorafenib, reference compound], for which the “influenza virus-mediated cell lysis / cell killing” value in [2] is listed as “reduced cell lysis / cell killing”. Moreover, the “effect on HSP70 ATPase activity” value at HSP70 ATPase is reported as “inhibitory effects”. Also, in data set [3], the “expression of glucosidase I and glucosidase IIα” value is listed as “rapidly reduced the expression”; the “expression of glucosidase IIβ” value was “did not impact”. In the data set with HSP90 ATPase, the “effect on HSP90 ATPase activity” value was “inhibitory effects”. Besides, the “expression of HSP27” value at HSP27 is “reduced”.
